Laboratory results taken from ChEMBL document CHEMBL1201862, “PubChem BioAssay data set” (2004).
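Test compounds were applied to cells in 96-well plates for 48 hours at 5 doses. GI50 = concentration required for 50% inhibition of growth.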 Activity calls are given as the source filed them. No stated cut-off is given here; in the data, active = GI50 up to about 1.1 µM and inactive = higher.

Columns and labels:
Experiment in all cases: NCI tumour cell line growth inhibition, 48 h
HCT-116 = test system: HCT-116
CAKI-1 = test system: CAKI-1
SK-MEL-28 = test system: SK-MEL-28
DMS-273 = test system: DMS-273
UACC-257 = test system: UACC-257
HOP-62 = test system: HOP-62
M14 = test system: M14
HCT-15 = test system: HCT-15
UO-31 = test system: UO-31
SF-268 = test system: SF-268
SNB-19 = test system: SNB-19
A498 = test system: A498
786-0 = test system: 786-0
OVCAR-4 = test system: OVCAR-4
RPMI-8226 = test system: RPMI-8226
BT-549 = test system: BT-549
MCF7 = test system: MCF7
MDA-MB-231 = test system: MDA-MB-231
Hs-578T = test system: Hs-578T
MDA-MB-435 = test system: MDA-MB-435

| Structure (SMILES) | GI50 (HCT-116) | GI50 (CAKI-1) | GI50 (SK-MEL-28) | GI50 (DMS-273) | GI50 (UACC-257) | GI50 (HOP-62) | GI50 (M14) | GI50 (HCT-15) [µM] | GI50 (UO-31) | GI50 (SF-268) | GI50 (SNB-19) | GI50 (A498) | GI50 (786-0) | GI50 (OVCAR-4) | GI50 (RPMI-8226) | GI50 (BT-549) | GI50 (MCF7) | GI50 (MDA-MB-231) | GI50 (Hs-578T) | GI50 (MDA-MB-435) |
| --- | --- | --- | --- | --- | --- | --- | --- | --- | --- | --- | --- | --- | --- | --- | --- | --- | --- | --- | --- | --- |
| CN(C)c1ccc(/C=c2\sc3nc4ccccc4n3c2=O)cc1 | > 100 µM (inactive) | > 100 µM (inactive) | > 100 µM (inactive) | > 100 µM (inactive) | > 100 µM (inactive) | > 100 µM (inactive) | > 100 µM (inactive) | > 100 | > 100 µM (inactive) | > 100 µM (inactive) | > 100 µM (inactive) | > 100 µM (inactive) | > 100 µM (inactive) | > 100 µM (inactive) | – | – | – | – | – | – |
| CCn1cc(/C=C/C(C)c2cn(CC)c(=O)[nH]c2=O)c(=O)[nH]c1=O (stereo not drawn) | – | > 100 µM (inactive) | > 100 µM (inactive) | > 100 µM (inactive) | > 100 µM (inactive) | > 100 µM (inactive) | > 100 µM (inactive) | > 100 | > 100 µM (inactive) | > 100 µM (inactive) | > 100 µM (inactive) | – | > 100 µM (inactive) | > 100 µM (inactive) | > 100 µM (inactive) | – | – | – | – | – |
| COc1ccc(C2CCc3cc4c(cc3/C2=N/OC(C)=O)OCO4)cc1OC (stereo not drawn) | 14.2 µM (inactive) | – | 18.4 µM (inactive) | 24.8 µM (inactive) | 18.4 µM (inactive) | 40.3 µM (inactive) | 20.6 µM (inactive) | 30.3 | 17.2 µM (inactive) | 12.9 µM (inactive) | 39.3 µM (inactive) | – | 32.5 µM (inactive) | 27.1 µM (inactive) | 12.6 µM (inactive) | – | – | – | – | – |
| Cn1nc(-c2ccccc2)c2c(/C=C/c3ccc(F)cc3)onc2c1=O | 9.59 µM (inactive) | 27.4 µM (inactive) | > 100 µM (inactive) | > 100 µM (inactive) | – | > 100 µM (inactive) | > 100 µM (inactive) | 39.5 | 29.2 µM (inactive) | > 100 µM (inactive) | – | – | 11.1 µM (inactive) | – | > 100 µM (inactive) | – | – | – | – | – |
| O=c1c2ncn(CCCl)c2n(-c2ccccc2)c(=S)n1-c1ccccc1 | > 100 µM (inactive) | > 100 µM (inactive) | > 100 µM (inactive) | – | > 100 µM (inactive) | > 100 µM (inactive) | > 100 µM (inactive) | > 100 | 99.5 µM (inactive) | > 100 µM (inactive) | > 100 µM (inactive) | > 100 µM (inactive) | > 100 µM (inactive) | > 100 µM (inactive) | > 100 µM (inactive) | > 100 µM (inactive) | > 100 µM (inactive) | > 100 µM (inactive) | 69.5 µM (inactive) | > 100 µM (inactive) |
| COC(=O)c1ccccc1C1CN=NC12Cc1cc(C)ccc1C2=O (stereo not drawn) | > 100 µM (inactive) | 84.1 µM (inactive) | > 100 µM (inactive) | – | > 100 µM (inactive) | > 100 µM (inactive) | > 100 µM (inactive) | > 100 | 52.4 µM (inactive) | > 100 µM (inactive) | > 100 µM (inactive) | > 100 µM (inactive) | > 100 µM (inactive) | > 100 µM (inactive) | > 100 µM (inactive) | > 100 µM (inactive) | 3.58 µM (inactive) | 21.5 µM (inactive) | 49 µM (inactive) | 62.4 µM (inactive) |
| C=CCNC1=C2C[C@@H](C)C[C@@H](OC)C(OC(=O)CCCN(C)C)[C@H](C)/C=C(\C)[C@@H](OC(N)=O)[C@H](OC)/C=C\C=C(/C)C(=O)NC(=CC1=O)C2=O (stereo partly drawn) | 7.13 µM (inactive) | 12.4 µM (inactive) | 13.7 µM (inactive) | – | 12.9 µM (inactive) | 9.95 µM (inactive) | 8.53 µM (inactive) | 6.32 | 13.6 µM (inactive) | 12.6 µM (inactive) | 13.8 µM (inactive) | 13.8 µM (inactive) | 12.4 µM (inactive) | 9.14 µM (inactive) | 6.49 µM (inactive) | 13.4 µM (inactive) | 2.02 µM (inactive) | 5.45 µM (inactive) | 17.5 µM (inactive) | 10.6 µM (inactive) |
